Experimental data reported in article PMC12040169 (PLOS Biology, 2025).

assay: in vitro; conditions: human, hela cells, % viability

Row | SMILES | viability at 28.5 h, 10 µM [%]
1 | CC(CC(=O)NC1(C#Cc2nccs2)CCCCC1)n1ccnc1 (centres unmarked) [CBK284746] | 99.5
2 | OC1(c2cccnc2F)CCN(Cc2ccccc2F)CC1 [CBK284372] | 91
3 | CS(=O)(=O)N1CCN(c2ccccc2NC(=O)c2cccnc2)CC1 [CBK267604] | 119
4 | CC(=O)OCc1ccc(CN2CCCCCC2c2cc(C)no2)o1 (centres unmarked) [CBK283007] | 100
5 | Cc1nn(Cc2ccc(F)cc2)c(=O)c2cc3sccc3n12 [CBK284059] | 72.7
6 | O=C(NCc1cccc(C(F)(F)F)c1)N1CCCC(CO)C1 (centres unmarked) [CBK156033] | 89.5
7 | Cc1ccc(-c2nnc(SCC(=O)Nc3ccc(N4CCOCC4)cc3)n2C)cc1 [CBK270247] | 111
8 | CC(=O)c1ccc(-c2nccnc2NCc2ccc(C(F)(F)F)cc2)s1 [CBK037983] | 99.2
9 | FC(F)(F)c1cccc(OCCOc2nccnc2N2CCNCC2)c1 [CBK014518G] | 105
10 | Cc1cc(-c2cn3ccnc3c(NC3CC3)n2)cc(C)c1O [CBK066747] | 86.5
11 | COc1cccc(C(=O)NCCC(=O)N2CCN(C)CC2)c1 [CBK304663] | 95.4
12 | COc1cc(/C=N/NC(=O)CC#N)ccc1OCc1ccccc1Cl [CBK263932] | 84.9
13 | O=C(NC1CC2(CCOCC2)Oc2ccccc21)c1ccco1 (centres unmarked) [CBK285378] | 98
14 | CC1=CCCN(C(=O)C23CCOCC2CN(c2ncccn2)C3)C1 (centres unmarked) [CBK304743] | 101
15 | CCCCN1CC(C(=O)OCC)=C(O)C1=O [CBK028774] | 110
16 | CC(C)Nc1cncc(OCC2CN(C)CCN2C)n1 (centres unmarked) [CBK115602] | 87.7
17 | Cc1cc(O)n2nc(CC(=O)NCc3nnc4n3CCCCC4)nc2n1 [CBK306989] | 103
18 | Cc1ccc(C(=O)N2CCC(c3nc4ccccc4s3)CC2)cc1NS(C)(=O)=O [CBK254629] | 89.2
19 | C[C@]12CN(Cc3ccccc3)C[C@H]1CNc1ccccc1C(=O)N2 [CBK282932] | 94.1
20 | O=C1CC(C(=O)c2ccccc2)NC(N2CCOCC2)=N1 (centres unmarked) [CBK267352] | 105
21 | CC(Oc1ccc(C(C)(C)C)cc1)C(=O)Nc1nnc[nH]1 (centres unmarked) [CBK267431] | 94.8
22 | Nc1cccc(Oc2ccc3c(c2)C(=O)N(CCC(=O)O)C3=O)c1 [CBK287186] | 94.1

Row | SMILES | viability at 28.5 h, 10 µM [%]
23 | Cc1c(NC(=O)CN(c2ccccc2)S(=O)(=O)N(C)C)cccc1[N+](=O)[O-] [CBK269012] | 106
24 | CCN(CC)CCSc1nc(O)c(-c2ccccc2)c(=O)n1-c1ccccc1 [CBK263335C] | 111
25 | OC1(c2cccnc2F)CCN(Cc2ccc(Cl)cc2)CC1 [CBK284368] | 102
26 | Nc1ccc(-c2cc(N)n(-c3ccc(Oc4ccccc4)c(S(=O)(=O)O)c3)n2)cc1 [CBK261563] | 96.1
27 | COc1ccc2c(c1)cc(C(=O)N1CCCn3cncc3C1)n2C [CBK306516] | 96.1
28 | CCCn1nnnc1NCc1cccc(Cl)c1 [CBK288130] | 98.7
29 | CCn1cc(C(=O)N2C[C@H](C(=O)OC)[C@@H](c3ccc(F)cc3)C2)cn1 [CBK283719] | 89.7
30 | CCCC(=O)NC[C@H]1CC[C@H](c2nnc(-c3ccsc3)o2)CC1 [CBK283362] | 98.9
31 | COc1cc([N+](=O)[O-])cc(CN2CCN(CCO)CC2)c1O [CBK261851] | 92.4
32 | Cc1ccc(S(=O)(=O)N2CCN(CCC(=O)O)CC2)cc1C [CBK269416] | 93.3
33 | CC(=O)N1CC[C@H]2NC(=O)CNC(=O)C3(CCCC[C@H]2C1)CCNCC3 [CBK292142] | 93.8
34 | O=C(Nc1cc(N2CCCS2(=O)=O)ccc1F)c1cccnc1O [CBK306320] | 97.4
35 | CC(=O)c1c(C(=O)O)[nH]c(C(=O)O)c1C [CBK263934] | 87.4
36 | CN(C)CCN(Cc1ccccc1)Cc1ccc(C(F)(F)F)cc1 [CBK261927] | 120
37 | CC(=O)NC(NC(=S)Nc1sc2c(c1C#N)CCCC2)C(Cl)(Cl)Cl (centres unmarked) [CBK261053] | 99.2
38 | COc1ccc(C(=O)NC(=S)Nc2ccc(N3CCN(C)CC3)cc2)cc1[N+](=O)[O-] [CBK266098C] | 89
39 | O=S1(=O)CCCN1c1ccc2[nH]ncc2c1 [CBK010263] | 102
40 | CCN(CC)CCCCSc1ccc(O)cc1 [CBK261785C] | 95.7
41 | O=C(NCCCc1nc2ccccc2[nH]1)c1ccccc1 [CBK268429] | 96.9
42 | O=C(NCCc1cccs1)NC1CCCc2c1cnn2CCO (centres unmarked) [CBK306324] | 92.6
43 | Cc1nnc(SCC(=O)N/N=C/c2cc([N+](=O)[O-])ccc2O)n1-c1ccccc1 [CBK262768] | 89.5
44 | COc1ccc(C2C(C(=O)c3ccc(C)cc3)=C(O)C(=O)N2CCN(C)C)cc1OC (centres unmarked) [CBK264463] | 90.1

Row | SMILES | viability at 28.5 h, 10 µM [%]
45 | COc1ccc(CNC(=O)NC(=O)C2CCN(S(C)(=O)=O)CC2)c(OC)c1 [CBK034861] | 89.4
46 | CCn1nc(C)c(NC(=O)CN(C)Cc2ccccc2C(F)(F)F)c1C [CBK306771] | 106
47 | COc1cc2c(cc1OC)CN(C(=O)CSc1nnc3ccccn13)CC2 [CBK287814] | 94.8
48 | CCN(CC)c1c(C)nc2ccc(C(=O)NCCc3ccccn3)cn12 [CBK145951] | 94.9
49 | CCOc1ccc(-c2nc(-c3cccc(NC(=O)c4ccccc4C(=O)O)c3)no2)cc1 [CBK299832] | 85.2
50 | CC(C)(C)OC(=O)NCc1ccc(CNCc2cccc(Cl)c2)cc1 [CBK056704] | 108
51 | COc1ccc(Cl)cc1NC(=S)NNC(=O)c1cccnc1 [CBK267161] | 92.7
52 | CC(=O)N1c2ccc(-c3cc4ccccn4c3)cc2CC1C (centres unmarked) [CBK285254] | 79.9
53 | O=[N+]([O-])c1ccc(CN(CCc2ccccc2)Cc2ccccc2)cc1 [CBK261866] | 99.2
54 | COc1ccc2c(c1)C(O)C(NCc1ccccc1)C2 (centres unmarked) [CBK015469C] | 104
55 | Cc1cccc(C)c1NC(=O)CN(c1ccc(F)cc1)S(=O)(=O)c1ccc2c(c1)OCCO2 [CBK264878] | 104
56 | COc1ccc(C(=O)N2CCN3C(=O)CCC32C)s1 (centres unmarked) [CBK282058] | 98.4
57 | Cc1nc(C)c(C(=O)N2Cc3ccccc3C2)s1 [CBK200326] | 95.9
58 | Cn1ccc(C(=O)NC2CCN(c3ncccn3)CC2)cc1=O [CBK304280] | 85.2
59 | CS(=O)(=O)N1CC2(CCN(CCOCc3ccccc3)CC2)c2ccccc21 [CBK115458T] | 96.4
60 | CCOCCn1c(CN2CCCCC2)nc2c1c(=O)n(C)c(=O)n2C [CBK306028] | 85.8
61 | Cc1cc(Br)c(NC(=O)COc2ccc(/C=C(\C#N)C(N)=S)cc2)cc1C [CBK269014] | 97.5
62 | N#Cc1cccc(CSc2nnc(Nc3ccccc3)n2-c2ccccc2)c1 [CBK266040] | 107
63 | COC(=O)c1ccsc1NC(=O)c1cc(-c2ccc(C)o2)nc2ccc(Br)cc12 [CBK267752] | 86.7
64 | O=C(Nc1nc(-c2ccccc2)cs1)c1ccc(N2C(=O)CCC2=O)cc1 [CBK287333] | 97.7
65 | CCc1nc2c(N3CCCn4nc(C(O)C5CC5)cc4C3)ncnc2o1 (centres unmarked) [CBK307543] | 78.6
